# Measurements reported in ChEMBL document CHEMBL1153665, “Development of L-689,065 - the prototype of a new class of potent 5-lipoxygenase inhibitors” (Bioorg Med Chem Lett, 1992).
# pIC50: −log10 of the molar value.
# Tests used:
# [1] = target: T1, Arachidonate 5-lipoxygenase-activating protein (Homo sapiens, UniProt P20292); test: Compound was tested for its binding activity towards 5-lipoxygenase activating protein (FLAP)
# T1 sequence (P20292 whole entry): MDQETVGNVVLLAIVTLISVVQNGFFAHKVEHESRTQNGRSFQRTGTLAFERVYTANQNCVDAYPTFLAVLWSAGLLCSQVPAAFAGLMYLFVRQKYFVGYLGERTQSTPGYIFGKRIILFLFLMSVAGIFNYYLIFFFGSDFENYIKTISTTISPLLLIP
# [2] = target: T2, Polyunsaturated fatty acid 5-lipoxygenase (Rattus norvegicus, UniProt P12527); test: Compound was tested for its inhibitory activity against 5-lipoxygenase in rat.
# T2 sequence (P12527 whole entry): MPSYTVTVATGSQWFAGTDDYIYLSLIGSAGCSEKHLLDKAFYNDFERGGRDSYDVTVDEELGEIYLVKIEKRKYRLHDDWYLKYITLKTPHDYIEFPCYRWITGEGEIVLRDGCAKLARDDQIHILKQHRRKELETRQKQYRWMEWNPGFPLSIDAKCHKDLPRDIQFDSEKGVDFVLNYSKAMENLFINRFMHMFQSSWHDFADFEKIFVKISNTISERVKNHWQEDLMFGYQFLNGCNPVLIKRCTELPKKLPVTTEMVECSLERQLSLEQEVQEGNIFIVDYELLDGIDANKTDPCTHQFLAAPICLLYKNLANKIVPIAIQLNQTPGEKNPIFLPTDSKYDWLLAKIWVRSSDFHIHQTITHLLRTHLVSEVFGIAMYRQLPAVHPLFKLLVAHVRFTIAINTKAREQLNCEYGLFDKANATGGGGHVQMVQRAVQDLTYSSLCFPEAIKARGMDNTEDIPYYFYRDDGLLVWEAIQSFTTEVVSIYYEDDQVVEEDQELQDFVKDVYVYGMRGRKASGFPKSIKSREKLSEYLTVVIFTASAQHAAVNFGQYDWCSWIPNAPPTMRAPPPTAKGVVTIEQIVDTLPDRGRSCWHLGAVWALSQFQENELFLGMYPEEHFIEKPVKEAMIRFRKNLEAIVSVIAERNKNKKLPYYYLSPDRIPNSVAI
# [3] = Maximum plasma concentration in rats when a oral dose of 200 mg/kg was given; format: ADME, organism-based; parameters: dose 200 mg/kg, route oral; settings: rat
# Rattus norvegicus [4] = test: Time to reach maximum concentration following oral administration of 200 mg/kg in rat; value ranges from 2-4; format: ADME, organism-based; parameters: dose 200 mg/kg, route oral; settings: in vivo
# Rattus norvegicus [5] = test: Compound was tested for inhibition of dyspnea at 0.5 mg/kg when administered perorally in rats; format: functional; settings: route oral
SMILES,pIC50 [1],pIC50 [2],Cmax [3],T max (Rattus norvegicus [4]),inhibition in vivo at 0.5 mg/kg (Rattus norvegicus [5])
Cc1c(CC(C)(C)C(=O)O)n(Cc2ccc(Cl)cc2)c2ccc(OCc3ccc4ccccc4n3)cc12,8.55,< 5.30,,,
CC(C)(C)Sc1c(CC(C)(C)C(=O)O)n(Cc2ccc(Cl)cc2)c2ccc(OCc3ccc4ccccc4n3)cc12 [QUIFLAPON],8.64,< 5.70,,,
C=CCc1c(OCc2ccc3ccccc3n2)ccc2c1c(SC(C)(C)C)c(CC(C)(C)C(=O)O)n2Cc1ccc(Cl)cc1,7.57,< 5.10,,,
Cc1c(CC(C)(C)C(=O)O)n(Cc2ccc(Cl)cc2)c2ccc(OCc3ccc(-c4ccccc4)cn3)cc12,8.03,6.15,,,

# Further lines, with some results ahead:
pIC50 [1],pIC50 [2],Cmax [3],T max (Rattus norvegicus [4]),SMILES,inhibition in vivo at 0.5 mg/kg (Rattus norvegicus [5])
7.72,6.52,,,CC1Cc2c(OCc3ccc4ccccc4n3)ccc3c2c(c(CC(C)(C)C(=O)O)n3Cc2ccc(Cl)cc2)S1 (centres undefined),
< 5.00,6.82,,,"CC1Cc2c(OCc3ccc(-c4ccccc4)cn3)ccc3c2c(c(CC(C)(C)C(=O)O)n3Cc2ccc(Cl)cc2)S1 (single isomer, unassigned; (+))",
< 5.00,7.40,,,"CC1Cc2c(OCc3ccc(-c4ccccc4)cn3)ccc3c2c(c(CC(C)(C)C(=O)O)n3Cc2ccc(Cl)cc2)S1 (single isomer, unassigned; (-))",
4.66,7.22,5 µM,2 h,CC1Cc2c(OCc3ccc(-c4ccccc4)cn3)ccc3c2c(c(CC(C)(C)C(=O)O)n3Cc2ccc(Cl)cc2)S1 (racemic),55%
